According to ChEMBL document CHEMBL4138254 (ACS Med Chem Lett, 2017):

Tests used:
Autotaxin [1] = target: T1, Autotaxin (Rattus norvegicus, UniProt Q64610); test: Inhibition of recombinant rat ATX using LPC 18:1 as substrate after 2 hrs by rapidfire/MS-based analysis
in vitro [2] = conditions: rat, liver microsomes
Description: Clearance in rat liver microsomes at 1 uM in presence of NADPH by LC-MS/MS analysis relative to hepatic blood flow

Autotaxin [3] = target: T1, Autotaxin; test: Inhibition of ATX in rat whole blood using LPA 17:0 as substrate after 1 hr by LC-MS/MS analysis
physchem [4] = conditions: pH 4.5 buffer solution
Description: Aqueous solubility of the compound in pH 4.5 buffer solution after 24 hrs by LC-UV analysis

physchem [5] = conditions: pH 2.2 buffer solution
Description: Aqueous solubility of the compound in pH 2.2 buffer solution after 24 hrs by LC-UV analysis

in vitro [6] = conditions: human, Caco-2
Description: Apparent permeability across apical to basolateral side in human Caco2 cells at 10 uM measured up to 90 mins

physchem [7] = conditions: pH 6.8 buffer solution
Description: Aqueous solubility of the compound in pH 6.8 buffer solution after 24 hrs by LC-UV analysis

[8] = target: Voltage-gated inwardly rectifying potassium channel KCNH2 (Homo sapiens, UniProt Q12809)
Description: Inhibition of human ERG expressed in HEK293 cells by patch clamp assay

in vitro [9] = conditions: human, liver microsomes
Description: Clearance in human liver microsomes at 1 uM in presence of NADPH by LC-MS/MS analysis relative to hepatic blood flow

Chain of Voltage-gated inwardly rectifying potassium channel KCNH2 (Q12809 whole entry): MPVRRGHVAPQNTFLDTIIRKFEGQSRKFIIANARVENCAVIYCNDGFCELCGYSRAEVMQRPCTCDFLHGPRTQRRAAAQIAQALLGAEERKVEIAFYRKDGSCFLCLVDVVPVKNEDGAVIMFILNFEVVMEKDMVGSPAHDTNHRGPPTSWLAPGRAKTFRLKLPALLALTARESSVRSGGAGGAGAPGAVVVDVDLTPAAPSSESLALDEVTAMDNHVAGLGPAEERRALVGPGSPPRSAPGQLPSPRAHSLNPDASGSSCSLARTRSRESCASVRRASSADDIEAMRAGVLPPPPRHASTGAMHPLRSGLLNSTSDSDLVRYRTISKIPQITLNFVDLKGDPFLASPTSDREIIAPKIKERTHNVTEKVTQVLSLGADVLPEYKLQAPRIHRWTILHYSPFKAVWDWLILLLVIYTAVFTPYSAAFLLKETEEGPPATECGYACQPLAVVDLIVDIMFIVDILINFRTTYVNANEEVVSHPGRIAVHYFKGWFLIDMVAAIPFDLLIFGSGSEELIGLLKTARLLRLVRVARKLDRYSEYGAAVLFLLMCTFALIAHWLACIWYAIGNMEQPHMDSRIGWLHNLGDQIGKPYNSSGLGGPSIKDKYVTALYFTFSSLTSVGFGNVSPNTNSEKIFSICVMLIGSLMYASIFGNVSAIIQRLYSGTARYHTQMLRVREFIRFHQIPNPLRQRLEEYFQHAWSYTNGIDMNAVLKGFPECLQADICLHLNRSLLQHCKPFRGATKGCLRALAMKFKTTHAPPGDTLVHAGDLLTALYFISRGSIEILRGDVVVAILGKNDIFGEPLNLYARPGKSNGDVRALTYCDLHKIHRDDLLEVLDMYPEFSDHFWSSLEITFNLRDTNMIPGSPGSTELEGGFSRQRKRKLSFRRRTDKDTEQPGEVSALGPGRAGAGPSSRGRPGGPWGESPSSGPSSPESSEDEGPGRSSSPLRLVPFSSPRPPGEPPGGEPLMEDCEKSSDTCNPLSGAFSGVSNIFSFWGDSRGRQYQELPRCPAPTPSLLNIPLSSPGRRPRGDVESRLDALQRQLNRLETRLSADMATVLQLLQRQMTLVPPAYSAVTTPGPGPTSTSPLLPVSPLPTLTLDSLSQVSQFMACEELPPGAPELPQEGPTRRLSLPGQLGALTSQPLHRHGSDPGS

SMILES	IC50 (Autotaxin [1]) [nM]	hepatic extraction ratio at 1 µM (in vitro [2])	IC50 (Autotaxin [3]) [nM]	solubility at 24 h (physchem [4]) [µg/mL]	solubility at 24 h (physchem [5]) [µg/mL]	Papp A→B at 1.5 h, 10 µM (in vitro [6]) [×10⁻⁶ cm/s]	solubility at 24 h (physchem [7]) [µg/mL]	IC50 [8] [µM]	hepatic extraction ratio at 1 µM (in vitro [9])
N#Cc1cc(COC(=O)N2C[C@@H]3[C@@H](CNC(=O)c4ccc5[nH]nnc5c4)[C@@H]3C2)cc(C(=O)OC(F)(F)F)c1	1.5	0.28	18	< 1	< 1	8	< 1	> 10	0.29
O=C(NC[C@@H]1[C@H]2CN(C(=O)OCc3cc(C(F)(F)F)cc(C(F)(F)F)c3)C[C@@H]12)c1ccc2[nH]c(=O)oc2c1	2.3	–	4.5	< 1	< 1	108	< 1	–	–
N#Cc1cc(COC(=O)N2C[C@@H]3[C@@H](CNC(=O)N4CCc5c(O)noc5C4)[C@@H]3C2)cc(C(=O)OC(F)(F)F)c1	10	< 0.22	–	< 1	< 1	–	> 113	> 10	< 0.23
O=C(NC[C@@H]1[C@H]2CN(C(=O)OCc3cc(Cl)cc(Cl)c3)C[C@@H]12)c1ccc2[nH]c(=O)oc2c1	3.1	0.64	56	< 1	< 1	137	< 1	> 10	0.41
N#Cc1cc(COC(=O)N2C[C@@H]3[C@@H](CNC(=O)NCCCc4cnn[nH]4)[C@@H]3C2)cc(C(=O)OC(F)(F)F)c1	5.5	–	65	–	–	–	–	–	–
CC(C)(C)OC(=O)N1CCCC(COC(=O)N2C[C@@H]3[C@@H](CNC(=O)c4ccc5[nH]c(=O)oc5c4)[C@@H]3C2)C1 (some centres undefined)	49	–	6.9	–	–	–	–	–	–
O=C(NC[C@@H]1[C@H]2CN(C(=O)CCc3cc(Cl)cc(Cl)c3)C[C@@H]12)c1ccc2[nH]c(=O)oc2c1	2.3	0.88	7	< 1	< 1	18	< 1	8.1	0.94
O=C(NC[C@@H]1[C@H]2CN(C(=O)N3CCc4c(Cl)cc(Cl)cc4C3)C[C@@H]12)c1ccc2[nH]c(=O)oc2c1	82.6	0.53	–	< 1	< 1	47	< 1	–	–
N#Cc1cc(COC(=O)N2C[C@@H]3[C@@H](CNC(=O)c4ccc5[nH]c(=O)oc5c4)[C@@H]3C2)cc(OC(F)(F)F)c1	1.9	0.56	94	< 1	< 1	44	< 1	> 10	0.48
